Experimental data from ChEMBL document CHEMBL1157008, “Discovery of 2-{4-[(3S)-piperidin-3-yl]phenyl}-2H-indazole-7-carboxamide (MK-4827): a novel oral poly(ADP-ribose)polymerase (PARP) inhibitor efficacious in BRCA-1 and -2 mutant tumors” (J Med Chem, 2009).
The source made the active and inactive calls. The calls are words filed in the database; no cut-off is given here.

Key:
HeLa [1] = assay: Selectivity index, ratio of CC50 for BRCA1 proficient human HeLa cells to CC50 for BRCA1 deficient human HeLa cells; type: functional
HeLa [2] = assay: Antiproliferative activity against BRCA1 deficient human HeLa cells after 7 days by cell titer-blue assay; type: functional; details: 168 h
[3] = target: Poly [ADP-ribose] polymerase 1 (Homo sapiens, UniProt P09874); assay: Inhibition of human PARP1 by SPA
Poly [ADP-ribose] polymerase 1, sequence (P09874 whole entry): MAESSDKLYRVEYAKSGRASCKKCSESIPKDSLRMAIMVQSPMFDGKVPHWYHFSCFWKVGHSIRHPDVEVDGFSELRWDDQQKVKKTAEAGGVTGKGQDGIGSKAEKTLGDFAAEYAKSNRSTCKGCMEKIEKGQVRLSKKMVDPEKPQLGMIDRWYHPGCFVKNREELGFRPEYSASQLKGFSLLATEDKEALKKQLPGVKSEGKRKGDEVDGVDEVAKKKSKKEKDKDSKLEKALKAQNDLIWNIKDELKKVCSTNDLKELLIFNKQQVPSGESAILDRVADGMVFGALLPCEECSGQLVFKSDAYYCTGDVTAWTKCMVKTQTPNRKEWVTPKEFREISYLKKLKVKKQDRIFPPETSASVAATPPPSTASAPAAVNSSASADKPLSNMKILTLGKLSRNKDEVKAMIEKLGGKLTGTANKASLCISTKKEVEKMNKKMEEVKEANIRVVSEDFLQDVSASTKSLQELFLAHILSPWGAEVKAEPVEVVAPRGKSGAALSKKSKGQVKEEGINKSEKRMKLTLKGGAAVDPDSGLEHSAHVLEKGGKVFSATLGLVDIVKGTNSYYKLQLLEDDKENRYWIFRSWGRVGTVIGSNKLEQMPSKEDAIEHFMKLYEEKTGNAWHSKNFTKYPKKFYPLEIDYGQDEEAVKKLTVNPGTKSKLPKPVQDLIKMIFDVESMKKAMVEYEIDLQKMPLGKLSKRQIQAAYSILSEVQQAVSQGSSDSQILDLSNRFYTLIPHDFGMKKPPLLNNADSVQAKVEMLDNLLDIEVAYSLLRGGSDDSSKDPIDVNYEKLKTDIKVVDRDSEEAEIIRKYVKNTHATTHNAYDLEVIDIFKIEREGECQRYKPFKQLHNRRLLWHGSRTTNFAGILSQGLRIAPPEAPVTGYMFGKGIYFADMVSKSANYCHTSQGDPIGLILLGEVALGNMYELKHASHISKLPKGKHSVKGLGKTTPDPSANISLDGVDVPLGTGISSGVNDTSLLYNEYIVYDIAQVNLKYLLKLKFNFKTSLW

PARP 1, 2 and 3 [4] = target: T1, PARP 1, 2 and 3 (Homo sapiens, UniProt P09874+Q9Y6F1+Q9UGN5); assay: Inhibition of PARP in hydrogen peroxide-induced human HeLa cells assessed as inhibition DNA-damage-induced PARylation; type: cell-based
HeLa [5] = assay: Antiproliferative activity against human HeLa cells expressing wild type BRCA1 after 7 days by cell titer-blue assay; type: functional; details: 168 h
PARP 1, 2 and 3 [6] = target: T1, PARP 1, 2 and 3; details: HeLa
[7] = Intrinsic clearance in rat lung microsomes assessed per mg of protein in presence of NADPH; type: ADME, Microsome
[8] = Metabolic stability in rat heart microsomes assessed as compound degradation in presence of NADPH; type: ADME
[9] = Biodistribution in iv dosed rat urine assessed as tert-butyl (3S)-3-{4-[7-(aminocarbonyl)-2H-indazol-2-yl]phenyl}piperidine-1-carboxylate level within 24 hrs; type: ADME, organism-based; details: in vivo
[10] = Intrinsic clearance in rat kidney microsomes assessed per mg of protein in presence of NADPH; type: ADME, Microsome
[11] = Oral bioavailability in rat; type: ADME, organism-based; details: in vivo
[12] = Plasma clearance in rat; type: ADME, organism-based
[13] = Intrinsic clearance in rat intestine microsomes assessed per mg of protein in presence of NADPH; type: ADME, Microsome
[14] = Intrinsic clearance in mouse liver microsomes assessed per mg of protein up to 90 mins; type: ADME, Microsome
CYP1A2 = target: T2, CYP1A2 (Rattus norvegicus, UniProt P04799); assay: (§1) Intrinsic clearance in rat liver microsomes assessed per mg of protein up to 60 mins in presence of rat recombinant CYP1A2; type: ADME, Microsome; details: rat liver microsomes with rat recombinant CYP1A2
T2 sequence (P04799 whole entry): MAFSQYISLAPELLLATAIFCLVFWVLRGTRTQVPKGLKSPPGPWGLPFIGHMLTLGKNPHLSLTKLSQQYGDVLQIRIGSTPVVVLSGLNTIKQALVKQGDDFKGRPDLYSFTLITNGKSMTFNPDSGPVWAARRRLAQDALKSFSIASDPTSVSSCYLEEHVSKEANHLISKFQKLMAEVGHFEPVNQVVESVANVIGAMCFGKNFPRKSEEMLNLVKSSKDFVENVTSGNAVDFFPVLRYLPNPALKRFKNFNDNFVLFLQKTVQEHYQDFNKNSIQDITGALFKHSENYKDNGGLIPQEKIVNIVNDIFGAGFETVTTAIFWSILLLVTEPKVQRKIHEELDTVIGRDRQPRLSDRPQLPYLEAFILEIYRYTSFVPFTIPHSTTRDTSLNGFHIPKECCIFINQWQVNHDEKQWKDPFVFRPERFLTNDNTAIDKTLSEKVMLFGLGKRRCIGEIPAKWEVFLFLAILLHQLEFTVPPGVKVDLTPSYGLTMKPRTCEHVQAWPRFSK

[15] = Biodistribution in iv dosed rat urine within 24 hrs; type: ADME, organism-based; details: in vivo
[16] = Intrinsic clearance in rat liver microsomes assessed per mg of protein in presence of NADPH; type: ADME, Microsome
[17] = Intrinsic clearance in rat liver microsomes assessed per mg of protein up to 90 mins; type: ADME, Microsome
Cytochrome P450 1A2 = target: T3, Cytochrome P450 1A2 (Rattus norvegicus, UniProt P04799); assay: as §1; type: ADME, Microsome; details: microsomes, 1 h
T3 sequence (P04799 whole entry): T2 sequence (P04799 whole entry)

[18] = Solubility in phosphate buffer; type: physicochemical
CAPAN-1 = assay: cells; details: Homo sapiens, CAPAN-1, 312 h
Description: Antiproliferative activity against human Capan1 cells expressing BRCA2 6174delT mutation and loss of wild-type allele after 13 days by cell titer-blue assay

cells = details: Homo sapiens, MDA-MB-436, 144 h
Description: Antiproliferative activity against human MDA-MB-436 cells expressing BRCA1 5396 + 1G>A mutant after 6 days by cell titer-blue assay

MDA-MB-436 [19] = details: Homo sapiens, 50 mg/kg
Description: Antitumor activity against human MDA-MB-436 cells expressing BRCA1 5396 + 1G>A mutant xenografted in CD1 mouse assessed as tumor regression at 50 mg/kg, po bid for 33 days

[20] = Antiproliferative activity against HMEC after 6 to 7 days by cell titer-blue assay; details: human, HMEC cells
[21] = Antiproliferative activity against human PrEC cells after 6 to 7 days by cell titer-blue assay
MDA-MB-436 [22] = details: Homo sapiens, 100 mg/kg
Description: Antitumor activity against human MDA-MB-436 cells expressing BRCA1 5396 + 1G>A mutant xenografted in CD1 mouse assessed as tumor regression at 100 mg/kg, po qd for 33 days

[23] = Terminal half life in rat; type: ADME, organism-based; details: in vivo, read-out: beta t1/2 (converted)
[24] = Volume of distribution in rat; type: ADME, organism-based; details: in vivo

SMILES | IC50 [3] | EC90 (PARP 1, 2 and 3 [6]) | clearance [12] | microsomal CLint [14] | microsomal CLint (CYP1A2) | microsomal CLint [17] | CC50 (HeLa [2]) | EC50 (PARP 1, 2 and 3 [4]) | CC50 (HeLa [5]) | also measured
NC(=O)c1cccc2cn(-c3ccc(CN4CCCC4)cc3)nc12 | 4.8 nM | 450 nM |  |  |  |  | 1200 nM | 94 nM | 8100 nM | Selectivity Index (HeLa [1]): 5
NC(=O)c1cccc2cn(-c3ccc(CN4CCCCC4)cc3)nc12 | 1.9 nM | 970 nM | 107 mL/min/kg | 3 µL/min/mg | 3.8 µL/min/mg | 29 µL/min/mg | 880 nM | 180 nM | 5800 nM | Selectivity Index (HeLa [1]): 5
NC(=O)c1cccc2cn(-c3ccc(CN4CCOCC4)cc3)nc12 | 17 nM | 6200 nM |  |  |  |  | 5300 nM | 1200 nM | > 20000 nM | 
NC(=O)c1cccc2cn(-c3ccc4c(c3)CCNC4)nc12 | 1.4 nM | 140 nM |  | 3 µL/min/mg |  | 36 µL/min/mg | 270 nM | 13 nM | 5400 nM | Selectivity Index (HeLa [1]): 20; bioavailability [11]: 22%; CL (Cytochrome P450 1A2): 0.7 µL/min/mg
NC(=O)c1cccc2cc(-c3ccccc3)nn12 | 55 nM |  |  |  |  |  |  |  |  | 
NC(=O)c1cccc2cn(-c3ccc(C4CCCNC4)cc3)nc12 (stereo not given) |  | 220 nM | 47 mL/min/kg | 1 µL/min/mg |  | 11 µL/min/mg | 72 nM |  | 2000 nM | bioavailability [11]: 74%; CL (Cytochrome P450 1A2): 0.3 µL/min/mg
NC(=O)c1cccc2cn(-c3ccccc3Cl)nc12 | 100 nM |  |  |  |  |  |  |  |  | 
NC(=O)c1cccc2cn(-c3ccc4c(c3)CNCC4)nc12 | 2.2 nM | 310 nM | 87 mL/min/kg | 4 µL/min/mg | 0.7 µL/min/mg | 52 µL/min/mg | 130 nM | 46 nM | 2200 nM | Selectivity Index (HeLa [1]): 16
CN(C)CCN(C)Cc1ccc(-n2cc3cccc(C(N)=O)c3n2)cc1 | 5.9 nM | 4400 nM |  |  |  |  | 3900 nM | 170 nM | > 20000 nM | 
NC(=O)c1cccc2cn(-c3ccc(C4CCNCC4)cc3)nc12 | 9 nM |  |  | 5 µL/min/mg | < 0.1 µL/min/mg | 15 µL/min/mg | 410 nM |  | 4500 nM | 
NC(=O)c1cccc2cn(Cc3ccccc3)nc12 | 130 nM | > 5000 nM |  |  |  |  |  | > 5000 nM |  | 
NC(=O)c1cccc2cn(-c3ccc([C@@H]4CCCNC4)cc3)nc12 [NIRAPARIB] |  | 45 nM | 28 mL/min/kg | 4 µL/min/mg |  | 16 µL/min/mg | 33 nM |  | 860 nM | CC50 (CAPAN-1): 90 nM; CC50 (cells): 18 nM; bioavailability [11]: 65%; inhibition (MDA-MB-436 [19]): Active; CL (Cytochrome P450 1A2): 0.3 µL/min/mg; CC50 [20]: > 5000 nM; CC50 [21]: > 5000 nM; inhibition (MDA-MB-436 [22]): Active
NC(=O)c1cccc2cn(-c3ccc(C4CCCN4)cc3)nc12 (stereo not given) | 3.1 nM | 430 nM |  | 4 µL/min/mg | 2.5 µL/min/mg | 22 µL/min/mg | 190 nM | 31 nM | 10000 nM | 
CN1CCN(Cc2ccc(-n3cc4cccc(C(N)=O)c4n3)cc2)CC1 | 31 nM | 2700 nM | 8 mL/min/kg | 2 µL/min/mg | < 0.1 µL/min/mg | 34 µL/min/mg | 2700 nM | 1100 nM | 7900 nM | Selectivity Index (HeLa [1]): 3; bioavailability [11]: 11%
NC(=O)c1cccc2nn(-c3ccccc3)nc12 | 71 nM |  |  |  |  |  |  |  |  | 
NC(=O)c1cccn2nc(-c3ccccc3)nc12 | 270 nM |  |  |  |  |  |  |  |  | 
NC(=O)c1cccc2cn(-c3ccc([C@H]4CCCNC4)cc3)nc12 |  | 280 nM | 24 mL/min/kg | 3 µL/min/mg | < 0.1 µL/min/mg | 7 µL/min/mg | 470 nM |  | 5700 nM | bioavailability [11]: 47%

Further lines, with some results ahead:

IC50 [3] | EC90 (PARP 1, 2 and 3 [6]) | clearance [12] | microsomal CLint [14] | microsomal CLint (CYP1A2) | microsomal CLint [17] | SMILES | CC50 (HeLa [2]) | EC50 (PARP 1, 2 and 3 [4]) | CC50 (HeLa [5]) | also measured
3.8 nM | 740 nM | 220 mL/min/kg | 3 µL/min/mg | 6 µL/min/mg | 28 µL/min/mg | CNCc1ccc(-n2cc3cccc(C(N)=O)c3n2)cc1 | 460 nM | 68 nM | 5400 nM | Selectivity Index (HeLa [1]): 10; microsomal CLint [7]: 22 µL/min/mg; Stability [8]: Stable; Drug uptake [9]: 50 %ID; microsomal CLint [10]: 22 µL/min/mg; bioavailability [11]: 23%; microsomal CLint [13]: 5 µL/min/mg; Drug uptake [15]: 80 %ID; microsomal CLint [16]: 28 µL/min/mg
16 nM | 900 nM |  | < 1 µL/min/mg |  | 11 µL/min/mg | CNC(C)(C)c1ccc(-n2cc3cccc(C(N)=O)c3n2)cc1 | 920 nM | 110 nM | 5500 nM | CL (Cytochrome P450 1A2): 0.4 µL/min/mg
4.3 nM | 2100 nM |  |  |  |  | CCNCc1ccc(-n2cc3cccc(C(N)=O)c3n2)cc1 | 1600 nM | 150 nM | 7400 nM | 
200 nM |  |  |  |  |  | CNCCc1ccc(-n2cc3cccc(C(N)=O)c3n2)cc1 | 19000 nM |  | > 20000 nM | 
3.7 nM | 630 nM | 450 mL/min/kg | 1 µL/min/mg |  | 177 µL/min/mg | CN(C)Cc1ccc(-n2cc3cccc(C(N)=O)c3n2)cc1 | 520 nM | 110 nM | 5600 nM | Selectivity Index (HeLa [1]): 10; solubility [18]: > 3000 µg/mL; CL (Cytochrome P450 1A2): 8.7 µL/min/mg
3.7 nM | 680 nM | 58 mL/min/kg | 1 µL/min/mg | 2.2 µL/min/mg | 9 µL/min/mg | CNC(C)c1ccc(-n2cc3cccc(C(N)=O)c3n2)cc1 (stereo not given) | 3100 nM | 58 nM | 14000 nM | 
24 nM | 6700 nM |  |  |  |  | NC(=O)c1cccc2cn(-c3ccc(Cl)cc3)nc12 |  | 720 nM |  | 
14 nM | 5600 nM |  |  |  |  | NC(=O)c1cccc2cn(-c3cccc(Cl)c3)nc12 |  | 450 nM |  | 
5.3 nM |  | 69 mL/min/kg | 5 µL/min/mg | 5.4 µL/min/mg | 32 µL/min/mg | CNCc1cccc(-n2cc3cccc(C(N)=O)c3n2)c1 | 10300 nM |  | > 20000 nM | 
24 nM | 6200 nM | 30 mL/min/kg | 138 µL/min/mg |  | 123 µL/min/mg | NC(=O)c1cccc2cn(-c3ccccc3)nc12 |  | 3700 nM |  | half-life [23]: 5.1 h; Vd [24]: 1.8 L/kg; bioavailability [11]: 41%
6.7 nM | 2000 nM | 131 mL/min/kg | 1 µL/min/mg | 0.8 µL/min/mg | 18 µL/min/mg | CC(C)NCc1ccc(-n2cc3cccc(C(N)=O)c3n2)cc1 | 2000 nM | 700 nM | 10000 nM | 
14 nM | 7600 nM |  |  |  |  | NC(=O)c1cccc2cn(-c3ccc(CNCC(F)F)cc3)nc12 | > 6600 nM | 3400 nM | > 6600 nM | 
2.1 nM |  |  |  |  |  | NC(=O)c1cccc2cn(-c3ccc(CNCCF)cc3)nc12 |  | > 5000 nM |  | 
